What was measured:
[1] = tested on: B16 mouse melanoma tumor; test: Western-blot of signaling proteins in B16 tumor tissue lysates; type: in vivo; details: band density ratio
Description: Western-blot analyses of signaling proteins in tumor tissue lysates in control and COH-SR4 treated groups were shown in FIG. 58. Crude fraction (about 50 μg) and WB with various antibodies were used.

[2] = tested on: B16 mouse melanoma tumor; test: Histopathology (IHC) of B16 melanoma tumor sections; type: in vivo; details: treated vs control tumors
Description: B16 melanoma bearing C57B mice tumor sections were treated without or with COH-SR4, and used for histopathologic analyses.
H&E stain, or hematoxylin and eosin stain, a general gross morphology stain were used. […] Eosin was pink and stained proteins nonspecifically. In a typical tissue, nuclei were stained blue, whereas the cytoplasm and extracellular matrix had varying degrees of pink staining. The pink coloration in the control tumor cells indicated cell proliferation (FIG. 57)
IHC analyses for Ki-67 expression (marker of cellular proliferation), CD31 (angiogenesis marker), and pAMPK (cellular regulator of lipid and glucose metabolism) from tumors in mice of control and COH-SR4-treated groups were carried out. Statistical significance of difference was determined by two-tailed Student's t test. When COH-SR4-treated tumor sections were compared with the control, p<0.001. […] Sections were counterstained with Hematoxylin (blue). Photomicrographs at 40× magnification were acquired using Olympus Provis AX70 microscope. Percent staining was determined by measuring positive immuno-reactivity per unit area. Arrows indicated the areas for positive staining for an antigen. The intensity of antigen staining was quantified by digital image analysis. Bars represented mean+S.E. (n=5); “*” means p<0.001 compared with control.

[3] = tested on: AMPK; test: AMPK activation in human melanoma cell lines; type: cell-based; details: regardless of BRAF, NRAS and LKB1 mutation
Description: Cell or tissue proteins were extracted with cell lysis buffer (Cell Signaling Technology) and protein concentration was determined using the DC Protein Assay kit (Bio-Rad, Hercules, Calif., USA). Equal amount of proteins (˜40 μg) were loaded onto 4-15% Criterion TGX gels (Bio-Rad, Hercules, Calif.), resolved by SDS-PAGE electrophoresis, and then transferred onto nitrocellulose membranes for immunoblotting. Membranes were blocked with 5% skimmed milk in Tris-buffered saline containing 0.05% Tween 20 before incubation overnight at 4° C. with desired primary antibodies. Immuno-reactive proteins were visualized by peroxidase-labeled secondary antibodies and ECL system (Western Lightning Chemiluminescence Reagent, Perkin-Elmer, Mass., USA). Equal loading of proteins was confirmed by stripping and re-probing the membranes with either β-actin or GAPDH antibodies. Band intensities were quantified using a densitometer (Quantity One, Bio-Rad, Hercules, Calif.).
One of the consequences of mitochondria uncoupling is decrease intracellular ATP production, leading to increased AMP:ATP ratio and triggering activation of the energy-sensitive enzyme AMPK. It has been previously shown that COH-SR4 indirectly activates AMPK in a time- and dose-dependent manner in both HepG2 cells and 3T3-adipocytes. […] In melanomas, mutation rates for BRAF NRAS and LKB1 are 50-70%, 5-30%, and 10%, respectively. […]

[4] = tested on: SK-MEL2; test: Intracellular ATP production, luminescence kit; type: cell-based, human; details: 5 μM, less than 1 h
Description: ATP production from cells treated with test compounds were measured using the Luminescent ATP Detection Assay Kit. AMP, ATP and ADP were measured by UV-HPLC.
One of the consequences of mitochondria uncoupling is decrease intracellular ATP production, leading to increased AMP:ATP ratio and triggering activation of the energy-sensitive enzyme AMPK. It has been previously shown that COH-SR4 indirectly activates AMPK in a time- and dose-dependent manner in both HepG2 cells and 3T3-adipocytes. […] In melanomas, mutation rates for BRAF NRAS and LKB1 are 50-70%, 5-30%, and 10%, respectively. […] AMPK activation may cause a cell cycle arrest associated with stabilization of p53 and the cyclin-dependent kinase inhibitors p21^WAF1 and p27^CIP1.

[5] = tested on: A2058 p^0 cells; test: Oxygen consumption rate in mitochondrial DNA-depleted cells; type: cell-based, human; details: compared with wild-type A2058; data not shown
Description: Oxygen consumption rate (OCR), a measure of OxPhos, and extracellular acidification rate (ECAR), a measure of lactate production by glycolysis, were measured using a Seahorse Xf^e96 Flux Analyzers (Seahorse Biosciences, North Billerica, Mass.). Cells were seeded in DMEM media in Seahorse 96-well tissue culture plates at a density of 5×10^3 cells/well and allowed to adhere for 24 h. Prior to the assay, the media was changed to unbuffered DMEM containing 25 mM glucose, 1 mM pyruvate and 1 mM glutamine, with 0.2% fatty acid/endotoxin-free BSA (w/v) (pH 7.4) and the cells were equilibrated for 30 min at 37° C. Test compounds were injected during the assay and OCR and ECAR were measured using 2-3 min measurement periods. Similar sets of experiments were performed in the presence of the mitochondria recoupler agent 6-KCH or the mitochondrial permeability transition (MPT) pore blocker CSA, where each compound was injected into the assay media prior to COH-SR4 or FCCP injection. […] OCR was measured throughout the different injections of the stressors and test compounds (indicated by arrows in the figures).
To verify that COH-SR4 acts directly on mitochondrial respiration, OCR in mitochondrial DNA-depleted (p^0) A2058 cells was measured, as well as freshly isolated mouse liver mitochondria and treated with either COH-SR4 or FCCP.

[6] = Metabolic effects in Type 2 diabetes db/db mice; type: in vivo, mouse; details: five weeks
Description: All animal experiments were carried out in accordance with the protocols approved by the Institutional Animal Care and Use Committee of the City of Hope. Nine-week old male C57BL/6J mice fed on high fat diet (HFD, 60% fat) and 10-week old db/db mice were given COH-SR4 (5 mg/kg B.W.) or vehicle (corn oil) via oral gavage every other day for six and five weeks, respectively. Oral glucose tolerance test was performed on animals after an overnight fast. All other metabolic parameters were measured at the end of study. Liver samples were stained with H&E and Oil Red O.
All data represented are mean±SEM. *P<0.05, **P<0.01 vs. LFD or db/+; ^#P<0.05, ^##P<0.01 vs. HFD or db/db. n=12 animals per group for HFD mice. LFD=low fat diet (lean), HFD=high fat diet (obese). n=8 animals per group for db/db mice.
Representative mice in each treatment group (db/+, db/db, db/db treated with COH-SR4 (db/db+SR4)) depicted gross images of whole body shape (top) and abdominal fat (bottom) (FIG. 85H).

O=C(Nc1cc(Cl)cc(Cl)c1)Nc1cc(Cl)cc(Cl)c1 [COH-SR4, 1,3-bis(3,5-dichlorophenyl) urea]
Akt, ratio COH-SR4 group/Control Group [1]: 0.84 | Bcl2, ratio COH-SR4 group/Control Group [1]: 0.39 | Bim, ratio COH-SR4 group/Control Group [1]: 5.8 | CDK4, ratio COH-SR4 group/Control Group [1]: 0.29 | Cyclin B1, ratio COH-SR4 group/Control Group [1]: 0.32 | Fibronectin, ratio COH-SR4 group/Control Group [1]: 0.22 | Vimentin, ratio COH-SR4 group/Control Group [1]: 0.39 | pAMPK, ratio COH-SR4 group/Control Group [1]: 3.1 | pAkt, ratio COH-SR4 group/Control Group [1]: 0.32 | CD31 (angiogenesis marker) [2]: decreased CD31 | Ki-67 expression (cellular proliferation) [2]: decreased Ki67 | pAMPK [2]: increased pAMPK | activation of AMPK [3]: dose- and time-dependent activation of AMPK | intracellular ATP production [4]: rapid decline | OCR in mitochondrial DNA-depleted cells [5]: failed to increase OCR | body weight ([6]; 5 mg/kg oral every other day): decreased body weight | HbA1c levels [6]: lower HbA1c levels | fasting blood glucose [6]: improved fasting blood glucose | glucose tolerance [6]: improved | hepatic steatosis [6]: reduced | hepatic triglycerides [6]: reduced hepatic triglycerides

From patent US9808434B2, “Compound for treating cancer and diabetes” (CITY OF HOPE, priority 2011, dated 2017)
